Patent US7727511B2, “Agents for imaging soluble a-beta” (priority 2003, dated 2010)
“Also recorded” adds a separate entry of the source.

Columns and labels:
[1] = target: T1, beta-amyloid 1-40 (20% biotin) fibrils (Homo sapiens, UniProt P05067); experiment: Scintillation proximity assay (SPA), direct/saturation binding of tritium labeled probe to fibrils; details: immobilized fibrils, identical conditions
T1 construct: purchased Bachem H-1194; biotinylated H-5914; host or cells: synthetic peptide
Protocol: B. Insoluble A-beta (1-40) fibril formation: Lyophilized human beta-amyloid 1-40 peptide (Catalog number H-1194, Bachem) was solubilized with HFIP to produce a dry clear film following the process described above for beta-amyloid 1-42. The clear film of beta-amyloid 1-40 was diluted with distilled water to achieve a 6 mg/mL concentration. […] The clear solution was diluted to 1 mg/mL with PBS, pH 7.4 to obtain a final concentration of 1 mg/mL beta-amyloid 1-40, and then incubated at 37° C. on an orbital shaker at 200 RPM for 4 days. A cloudy solution was produced, and the fibril production was confirmed by measuring changes in fluorescence of Thioflavin T, as well as by atomic force microscopy and transmission electron microscopy. Fibrils were used immediately after their production was confirmed.
For SPA and atomic force microscopy (AFM) experiments, preparations of soluble oligomers and fibrils contained 20% biotinylated beta-amyloid 1-42 and 1-40, respectively (H-5642, H-5914, Bachem). […]
For the saturation-binding assay, isotopic dilution of radiolabeled 49b with unlabeled 49b was performed. ^3H-49b was added to 500 uM of unlabeled 49b to a final concentration of 50 μCi/mL ^3H-49b. […] Assays were incubated overnight and counted the following morning. […]

[2] = tested on: beta-amyloid in PDAPP mouse brain sections; experiment: Histochemical staining on PDAPP transgenic mouse brain sections; type: binding
Protocol: 3-month old and 24-month old PDAPP mouse brains were obtained from Eli Lilly (Indianapolis, Ind.). Fresh frozen 30 micron sections of the brains were fixed in 10% formalin. For 49b, or Thioflavin S staining, 1 mM stock solutions of 49b and Thioflavin S were prepared in 50% ethanol. The probes were diluted to 25 μM in 50% ethanol, and then applied onto the PDAPP brain sections. The slides were incubated in a humid chamber at room temperature for 1 hr. The slides were washed three times with PBS and mounting medium (Molecular Probes) was added. The slides were incubated at least 4-6 hours before imaging. For the carbonate pre-treatment of the brain sections, formalin-fixed sections were incubated with 100 μL of carbonate buffer containing 0.025 M sodium chloride and 0.1 M sodium carbonate for 45 mins at 37° C. The slides were washed three times with PBS, then 49b or Thioflavin S were applied on the slides as described above. Microscopic examination and imaging was performed using a Leica wide-field fluorescence microscope using filter cube A for 49b and cube E4 for Thioflavin S. Co-staining of the probes with 6E10 anti-beta-amyloid antibody in the PDAPP brain sections was described in the ex vivo assay using naïve rats.

[3] = target: beta-amyloid 1-40 monomers (Homo sapiens, UniProt P05067); experiment: Ex vivo fluorescent binding assay, monomers on naive rat brain sections; details: data not shown
Protocol: (§1) Fresh-frozen tissue sections of Sprauge-Dawley naïve rat brain (Taconic) 10 microns in thickness were fixed with 10% formalin in PBS. Each section of the rat brain was then embedded in paraffin, an optional step that increases the shelf life of the sample. Pre-formed soluble oligomers (100 μM), fibrils (100 μM), or monomers were applied onto tissues, and the slides incubated in a humidified chamber for two hours at 37° C. The slides were washed with PBS three times, then incubated with blocking buffer consisting of 10% normal goat serum in 3% BSA in PBS. To verify the presence of beta-amyloid, 100 μL of a 1/250th dilution of anti-beta-amyloid antibody, 6E10 (Signet Laboratories) was applied onto the tissues. The slides were incubated for 1.5 hours at room temperature or for 45 mins at 37° C. 1 mM stock solutions of 49b and Thioflavin T were prepared in 50% ethanol. The probes were diluted to 50 μM in blocking buffer. […] Microscopic examination and imaging was performed using a Leica wide-field fluorescence microscope using filter cube A (band pass 340-380 nm with a 400 nm dichroic mirror and a long pass 400 nm suppression filter) for 49b, cube E4 (band pass 436 nm with 455 dichroic mirror and a long pass 470 nm suppression filter) for Thioflavin T, and TX2 (band pass 520-600 nm with 595 nm dichroic mirror and 645/75 band pass suppression filter) for 6E10 immunostaining.

[4] = target: beta-amyloid 1-42 monomers (Homo sapiens, UniProt P05067); experiment: as above; details: data not shown
Protocol: as §1

T1 sequence (P05067 672-711 limits assumed): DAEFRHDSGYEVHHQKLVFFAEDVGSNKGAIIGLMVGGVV
Sequence of beta-amyloid 1-42 monomers (P05067 672-713 limits assumed): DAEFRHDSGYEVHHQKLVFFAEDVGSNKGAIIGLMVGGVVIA
Sequence of beta-amyloid 1-40 monomers (P05067 672-711 limits assumed): as the sequence (P05067 672-711 limits assumed) above

- staining of beta-amyloid 1-40 monomers [3]: did not stain
- staining of beta-amyloid 1-42 monomers [4]: did not stain
SMILES: O=Cc1ccc(-c2oc3ccccc3c2CO)o1 [Compound 49b, 2-(2-formyl-5-furanyl)-3-hydroxymethyl benzofuran]
- affinity to fibrils [1]: no measurable affinity; also recorded: No demonstrable affinity
- staining of brain sections ([2]; 24-month old PDAPP mice, 25 μM probe): punctuate staining pattern that co-localized with beta-amyloid immunoreactivity; also recorded: primarily found in the hippocampus and co-localized with Thioflavin S staining
- staining of carbonate pre-treated brain sections ([2]; 24-month old PDAPP, carbonate extraction buffer to remove soluble material): did not stain
- staining of brain sections ([2]; young (3-month old) PDAPP mice): No staining was observed
